System: nitrification
Test: Example 5: soil incubation in bottles with ammonium sulfate, DMPSA, DCD or mixtures, 5 to 15° C., 0 up to 56 days; recovery NH4 (RE/RC), net recovery NH4 (NE/NC), inhibition of NO3 formation (IE/IC, Böhland; Colby)
Experimental: 100 g soil is filled into 500 ml plastic bottles (e.g. soil sampled from the field) and is moistened to 50% water holding capacity. The soil is incubated at 20° C. for two weeks to activate the microbial biomass. 1 ml test solution, containing the compositions and mixtures of the invention in the appropriate concentration, or DMSO and 5 to 10 mg nitrogen in the form of ammoniumsulfate-N is added to the soil and everything mixed well. Bottles are capped but loosely to allow air exchange. The bottles are then incubated at 5 to 15° C. for 0 up to 56 days.
For analysis, 300 ml of a 1% K2SO4-solution is added to the bottle containing the soil and shaken for 2 hrs in a horizontal shaker at 150 rpm. Then the whole solution is filtered through a Macherey-Nagel Filter MN 807′/. Ammonium and nitrate content is then analyzed in the filtrate in an autoanalyzer at 550 nm (Merck, AA11).
The Böhland equation is described in Böhland, H., et al. (1973) “Mittel zur Hemmung bzw. Regelung der Nitrifikation von Ammoniumstickstoff in Kulturböden”. DDR-Wirtschaftspatent (Economic patent of the German Democratic Republic) C 05c 169 727. Cited by: Peschke, H. (1985) “Zur Bewertung der inhibierenden Wirkung von Nitrifiziden im Boden”, Zbl. Mikrobiol. 140, pp. 583-588.

For `N#CN=C(N)N` [DCD, dicyandiamide], the “IE inhibition of NO3 formation” value (IT5° C., DAT10, % a.i.: DMPSA 0.5, DCD 1, DMPSA + DCD 0.5 + 1 (1:2)) was 10, the “IE inhibition of NO3 formation” value (IT5° C., DAT10, % a.i.: DMPSA 0.5, DCD 3, DMPSA + DCD 0.5 + 3 (1:6)) was 43 and the “IE inhibition of NO3 formation” value (IT5° C., DAT20, % a.i.: DMPSA 0.5, DCD 1, DMPSA + DCD 0.5 + 1 (1:2)) was −5. For the same molecule, the “IE inhibition of NO3 formation” value (IT5° C., DAT20, % a.i.: DMPSA 0.5, DCD 3, DMPSA + DCD 0.5 + 3 (1:6)) was 32, the “IE (inhibition of NO3 formation, Böhland)” value (IT5° C., DAT28, % a.i. DMPSA 0.25, DCD 1) was 65 and the “IE (inhibition of NO3 formation, Böhland)” value (IT5° C., DAT28, % a.i. DMPSA 0.25, DCD 3) was 73. For the same molecule, the “IE (inhibition of NO3 formation, Böhland)” value (IT5° C., DAT28, % a.i. DMPSA 0.30, DCD 0.05) was 1, the “IE (inhibition of NO3 formation, Böhland)” value (IT5° C., DAT28, % a.i. DMPSA 0.50, DCD 0.08) was 12 and the “IE inhibition of NO3 formation” value (IT5° C., DAT28, % a.i.: DMPSA 0.50, DCD 0.0125, DMPSA + DCD 0.50 + 0.0125 (40:1)) was −7. The “IE inhibition of NO3 formation” value (IT5° C., DAT28, % a.i.: DMPSA 0.50, DCD 0.0143, DMPSA + DCD 0.50 + 0.0143 (35:1)) was −2, the “IE inhibition of NO3 formation” value (IT5° C., DAT28, % a.i.: DMPSA 0.50, DCD 0.0167, DMPSA + DCD 0.50 + 0.0167 (30:1)) was 0 and the “IE inhibition of NO3 formation” value (IT5° C., DAT30, % a.i.: DMPSA 0.5, DCD 1, DMPSA + DCD 0.5 + 1 (1:2)) was 70. The “IE inhibition of NO3 formation” value (IT5° C., DAT30, % a.i.: DMPSA 0.5, DCD 3, DMPSA + DCD 0.5 + 3 (1:6)) was 113, the “IE (inhibition of NO3 formation, Böhland)” value (IT5° C., DAT42, % a.i. DMPSA 0.25, DCD 1) was 63 and the “IE (inhibition of NO3 formation, Böhland)” value (IT5° C., DAT42, % a.i. DMPSA 0.25, DCD 3) was 82. For the same molecule, the “IE (inhibition of NO3 formation, Böhland)” value (IT5° C., DAT42, % a.i. DMPSA 0.30, DCD 0.05) was 7, the “IE (inhibition of NO3 formation, Böhland)” value (IT5° C., DAT42, % a.i. DMPSA 0.50, DCD 0.08) was 18 and the “IE (inhibition of NO3 formation, Böhland)” value (IT5° C., DAT56, % a.i. DMPSA 0.25, DCD 1) was 57. The “IE (inhibition of NO3 formation, Böhland)” value (IT5° C., DAT56, % a.i. DMPSA 0.25, DCD 3) was 74, the “IE (inhibition of NO3 formation, Böhland)” value (IT5° C., DAT56, % a.i. DMPSA 0.30, DCD 0.05) was 13 and the “IE (inhibition of NO3 formation, Böhland)” value (IT5° C., DAT56, % a.i. DMPSA 0.50, DCD 0.08) was −1. For the same molecule, the “IE inhibition of NO3 formation” value (IT10° C., DAT10, % a.i.: DMPSA 0.5, DCD 1, DMPSA + DCD 0.5 + 1 (1:2)) was 18, the “IE inhibition of NO3 formation” value (IT10° C., DAT10, % a.i.: DMPSA 0.5, DCD 3, DMPSA + DCD 0.5 + 3 (1:6)) was 59 and the “IE inhibition of NO3 formation” value (IT10° C., DAT20, % a.i.: DMPSA 0.5, DCD 1, DMPSA + DCD 0.5 + 1 (1:2)) was 15. For the same molecule, the “IE inhibition of NO3 formation” value (IT10° C., DAT20, % a.i.: DMPSA 0.5, DCD 3, DMPSA + DCD 0.5 + 3 (1:6)) was 24, the “IE (inhibition of NO3 formation, Böhland)” value (IT10° C., DAT28, % a.i. DMPSA 0.25, DCD 1) was 47 and the “IE (inhibition of NO3 formation, Böhland)” value (IT10° C., DAT28, % a.i. DMPSA 0.25, DCD 3) was 64. For the same molecule, the “IE (inhibition of NO3 formation, Böhland)” value (IT10° C., DAT28, % a.i. DMPSA 0.30, DCD 0.05) was 4, the “IE (inhibition of NO3 formation, Böhland)” value (IT10° C., DAT28, % a.i. DMPSA 0.50, DCD 0.08) was 2 and the “IE inhibition of NO3 formation” value (IT10° C., DAT28, % a.i.: DMPSA 0.50, DCD 0.0125, DMPSA + DCD 0.50 + 0.0125 (40:1)) was 1. For the same molecule, the “IE inhibition of NO3 formation” value (IT10° C., DAT28, % a.i.: DMPSA 0.50, DCD 0.0143, DMPSA + DCD 0.50 + 0.0143 (35:1)) was −3, the “IE inhibition of NO3 formation” value (IT10° C., DAT28, % a.i.: DMPSA 0.50, DCD 0.0167, DMPSA + DCD 0.50 + 0.0167 (30:1)) was −1 and the “IE inhibition of NO3 formation” value (IT10° C., DAT30, % a.i.: DMPSA 0.5, DCD 1, DMPSA + DCD 0.5 + 1 (1:2)) was 47. For the same molecule, the “IE inhibition of NO3 formation” value (IT10° C., DAT30, % a.i.: DMPSA 0.5, DCD 3, DMPSA + DCD 0.5 + 3 (1:6)) was 55, the “IE (inhibition of NO3 formation, Böhland)” value (IT10° C., DAT42, % a.i. DMPSA 0.25, DCD 1) was 51 and the “IE (inhibition of NO3 formation, Böhland)” value (IT10° C., DAT42, % a.i. DMPSA 0.25, DCD 3) was 64. For the same molecule, the “IE (inhibition of NO3 formation, Böhland)” value (IT10° C., DAT42, % a.i. DMPSA 0.30, DCD 0.05) was −1, the “IE (inhibition of NO3 formation, Böhland)” value (IT10° C., DAT42, % a.i. DMPSA 0.50, DCD 0.08) was −1 and the “IE (inhibition of NO3 formation, Böhland)” value (IT10° C., DAT56, % a.i. DMPSA 0.25, DCD 1) was 19. For the same molecule, the “IE (inhibition of NO3 formation, Böhland)” value (IT10° C., DAT56, % a.i. DMPSA 0.25, DCD 3) was 29, the “IE (inhibition of NO3 formation, Böhland)” value (IT10° C., DAT56, % a.i. DMPSA 0.30, DCD 0.05) was −3 and the “IE (inhibition of NO3 formation, Böhland)” value (IT10° C., DAT56, % a.i. DMPSA 0.50, DCD 0.08) was 0. For the same molecule, the “IE inhibition of NO3 formation” value (IT15° C., DAT10, % a.i.: DMPSA 0.5, DCD 1, DMPSA + DCD 0.5 + 1 (1:2)) was 34, the “IE inhibition of NO3 formation” value (IT15° C., DAT10, % a.i.: DMPSA 0.5, DCD 3, DMPSA + DCD 0.5 + 3 (1:6)) was 55 and the “IE inhibition of NO3 formation” value (IT15° C., DAT20, % a.i.: DMPSA 0.5, DCD 1, DMPSA + DCD 0.5 + 1 (1:2)) was 47. The “IE inhibition of NO3 formation” value (IT15° C., DAT20, % a.i.: DMPSA 0.5, DCD 3, DMPSA + DCD 0.5 + 3 (1:6)) was 64, the “IE (inhibition of NO3 formation, Böhland)” value (IT15° C., DAT28, % a.i. DMPSA 0.25, DCD 1) was 27 and the “IE (inhibition of NO3 formation, Böhland)” value (IT15° C., DAT28, % a.i. DMPSA 0.25, DCD 3) was 46. The “IE inhibition of NO3 formation” value (IT15° C., DAT28, % a.i.: DMPSA 0.30, DCD 0.05, DMPSA + DCD 0.30 + 0.05 (6:1)) was 5, the “IE inhibition of NO3 formation” value (IT15° C., DAT28, % a.i.: DMPSA 0.50, DCD 0.0125, DMPSA + DCD 0.50 + 0.0125 (40:1)) was 2 and the “IE inhibition of NO3 formation” value (IT15° C., DAT28, % a.i.: DMPSA 0.50, DCD 0.0143, DMPSA + DCD 0.50 + 0.0143 (35:1)) was 1. The “IE inhibition of NO3 formation” value (IT15° C., DAT28, % a.i.: DMPSA 0.50, DCD 0.0167, DMPSA + DCD 0.50 + 0.0167 (30:1)) was 1, the “IE inhibition of NO3 formation” value (IT15° C., DAT28, % a.i.: DMPSA 0.50, DCD 0.08, DMPSA + DCD 0.50 + 0.08 (6.25:1)) was 2 and the “IE inhibition of NO3 formation” value (IT15° C., DAT30, % a.i.: DMPSA 0.5, DCD 1, DMPSA + DCD 0.5 + 1 (1:2)) was 42. For the same molecule, the “IE inhibition of NO3 formation” value (IT15° C., DAT30, % a.i.: DMPSA 0.5, DCD 3, DMPSA + DCD 0.5 + 3 (1:6)) was 59, the “IE (inhibition of NO3 formation, Böhland)” value (IT15° C., DAT42, % a.i. DMPSA 0.25, DCD 1) was 12 and the “IE (inhibition of NO3 formation, Böhland)” value (IT15° C., DAT42, % a.i. DMPSA 0.25, DCD 3) was 21. The “IE inhibition of NO3 formation” value (IT15° C., DAT42, % a.i.: DMPSA 0.30, DCD 0.05, DMPSA + DCD 0.30 + 0.05 (6:1)) was 2, the “IE inhibition of NO3 formation” value (IT15° C., DAT42, % a.i.: DMPSA 0.50, DCD 0.08, DMPSA + DCD 0.50 + 0.08 (6.25:1)) was 3 and the “IE (inhibition of NO3 formation, Böhland)” value (IT15° C., DAT56, % a.i. DMPSA 0.25, DCD 1) was 1. For the same molecule, the “IE (inhibition of NO3 formation, Böhland)” value (IT15° C., DAT56, % a.i. DMPSA 0.25, DCD 3) was 3, the “IE inhibition of NO3 formation” value (IT15° C., DAT56, % a.i.: DMPSA 0.30, DCD 0.05, DMPSA + DCD 0.30 + 0.05 (6:1)) was 16 and the “IE inhibition of NO3 formation” value (IT15° C., DAT56, % a.i.: DMPSA 0.50, DCD 0.08, DMPSA + DCD 0.50 + 0.08 (6.25:1)) was 13.

— patent US20210371351A1, “MIXTURES COMPRISING AT LEAST TWO DIFFERENT NITRIFICATION INHIBITORS SELECTED FROM 2-(3,4-DIMETHYL-1H-PYRAZOL-1-YL)SUCCINIC ACID (DMPSA), 3,4-DIMETHYL PYRAZOLIUM GLYCOLATE (DMPG) AND OTHER COMPOUNDS” (BASF SE, priority 2017, published 2021)
